Source: the METLIN SMRT retention time set (Domingo-Almenara et al. 2019)

Assay: gradient 5% acetonitrile 3 min, to 50% in 2 min, to 85% in 15 min, held 3 min, 100 µL/min
Details: column: Zorbax Extend-C18 2.1 x 50 mm; eluents: water / acetonitrile, 0.1% formic acid
Method in brief: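 Retention time was recorded from adduct peaks, which were picked computationally and each inspected manually. Pure standards ran in mixtures of ~100 molecules on HPLC coupled to a quadrupole time-of-flight mass spectrometer, in positive and negative ionization mode, through a Zorbax Extend-C18 column (2.1 × 50 mm, 1.8 μm) at 100 μL/min. Eluents were water and acetonitrile, each with 0.1% formic acid.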

Point of comparison: `Brc1ccc([C@H]2CN3CCSC3=N2)cc1`, RP-LC retention time 645 s. Against it:
- CN(C)C(=O)c1ccc2c(c1)N(CC(=O)Nc1cccnc1)C(=O)CO2 — lower, 572 s
- Cc1cc(N2CCN(S(=O)(=O)c3ccc(C)c(C)c3)CC2)nc(NC2CCCCC2)n1 — higher, 876 s
- Cc1[nH]c(C(=O)N2CCC(CC(=O)NC3CCCCC3)CC2)c(C)c1C(=O)OC(C)C — higher, 825 s
- COc1ccc(OC)c(CNC(=O)c2cn3c(n2)CCCC3)c1 — lower, 587 s
- Cc1ccsc1C1C2=C(CC(C)(C)CC2=O)OC2=C1C(=O)CC(C)(C)C2 — higher, 1090 s
- N#Cc1c(N)nc(N)nc1Nc1ccc(Br)cc1 — higher, 777 s
- Cc1ncsc1CN1CCC2(CC1)CC(Cc1ccc(F)cc1)CCO2 (configuration not stated) — lower, 556 s
- CC(C)(C)NC(=O)N1CCN(Cc2nc3cccnc3n2-c2cccc(F)c2)CC1 — higher, 648 s
- Cc1c(C2CCN(C(=O)c3n[nH]c4ccccc34)CC2)noc1N — lower, 643 s
- Cc1ccc(Cn2cc(-c3ccncc3)cc2C(=O)NC(C)c2ccccn2)cc1 (configuration not stated) — lower, 620 s
- CCOC(=O)c1c(C)oc2nc(C)nc(NCCc3ccc(OCC)cc3)c12 — higher, 1270 s
- CN(C(=O)Cn1c(=O)oc2ccccc21)C1CCc2nn(C)c(=O)n2CC1 (configuration not stated) — lower, 633 s
- COCC(=O)N1CCc2c([nH]c3ccccc23)C1c1ccccc1 (configuration not stated) — higher, 935 s
- CCOc1ccccc1-c1noc(Cn2c(=O)n(Cc3ccc(F)cc3)c(=O)c3sccc32)n1 — higher, 1100 s
- COc1ccc(C(=O)Nc2nc(CC(=O)NCc3cccs3)cs2)cc1 — higher, 739 s
- CC(C)c1ccc(C(=O)NC(Cc2ccccc2)c2nnc(N3CCSCC3)o2)cc1 (configuration not stated) — higher, 996 s
- O=C(Cn1c(=O)c2cccn2c2ccc(F)cc21)NCc1ccc(F)cc1 — higher, 818 s
- O=C(NC1CCCCCC1)c1ccc(CN2C(=O)C3CCCN3C(=O)c3ccccc32)cc1 (configuration not stated) — higher, 818 s
- O=C(Nc1cccc(Cl)c1)C1CCCN(S(=O)(=O)Cc2ccccc2)C1 (configuration not stated) — higher, 1030 s
- O=C(NCCOc1ccc2nnc(-c3cccc(F)c3)n2n1)c1cc(=O)c2ccccc2o1 — higher, 682 s
- CCOc1ccc(CC(=O)NC2CCN(c3cc(-c4ccc(Cl)cc4)[nH]n3)C2)cc1OCC (configuration not stated) — higher, 803 s
- COc1ccc(CN2CCc3nc(N4CCN(c5ncccn5)CC4)ncc3C2)cc1 — lower, 584 s
- CCc1ccc(C(=O)Nc2cnn(CC)c(=O)c2N2CCOCC2)cc1 — higher, 1070 s
- CC(C)C(=O)Nc1ccc2nc(N3CCN(c4cccc(Cl)c4)CC3)cc(C(=O)O)c2c1 — higher, 883 s
- Cc1cccc(NS(=O)(=O)c2ccc3c(c2)CCCC(=O)N3)c1C — higher, 813 s
- Clc1ccccc1-c1nnc(-c2ccccc2Cl)o1 — higher, 1080 s
- COc1ccc(-c2nc3cnccn3c2Nc2ccc(C(N)=O)cc2)cc1OC — lower, 593 s
- Cc1oc(C2CCN(S(=O)(=O)CCc3ccccc3)CC2)nc1C(=O)N1CCCC1 — higher, 917 s
- Cc1ccc(C)c(C(=O)NCc2ccc(-n3ccnc3)cc2)c1 — lower, 630 s
- CCC(C)C1Nc2ccc(C(=O)NCCCN3CCOCC3)cc2NC1=O (configuration not stated) — lower, 584 s
- O=C(Nc1ccc2c(c1)OCCO2)N1CCCC(Cn2c(C3CC3)nc3cccnc32)C1 (configuration not stated) — the same, 645 s
- CC(C)CN1C(=O)c2ccccc2C(C(=O)NCc2ccccn2)C1c1cccs1 (configuration not stated) — lower, 632 s
- CCOC(=O)Cn1c(C2CCCN2C(=O)CC)nc2ccccc21 (configuration not stated) — lower, 613 s
- O=C(C1=CN(c2ccc3c(c2)OCCO3)c2cc(F)ccc2S1(=O)=O)N1CCCC1 — higher, 735 s
- CCCn1cc(S(=O)(=O)NCc2ccc(F)cc2)c2cccnc21 — higher, 912 s
- Cc1cc2c(=O)n(CC(=O)Nc3ccc(F)cc3Cl)ccc2s1 — higher, 812 s
